Columns and labels:
[1] = system: T. cruzi Y strain trypomastigote forms; experiment: Anti-T. cruzi activity against trypomastigote forms; format: cell-based; conditions: for EC50: Trypanosoma cruzi, 24 h, 24 h of incubation, Y strain, read-out: Y strain T. cruzi EC50 Trypomastigote
Protocol: (§1) The T. cruzi Y strain was selected for this study due to its known partial sensitivity to benznidazole chemotherapy.
Trypomastigote forms of T. cruzi (2.5 × 10^5 parasites/well) were incubated in 96-well plates with serial dilutions of the hybrid compounds (100, 50, 25, and 12.5 μmol·L^–1) for 24 h at 37 °C in a humidified 5% CO2 atmosphere. Following incubation, parasite viability was assessed under an optical microscope by evaluating motility, and the number of live parasites was quantified using a Neubauer chamber. Untreated parasite cultures were maintained in parallel as negative controls. The mortality percentage was calculated by comparing the number of live parasites in treated wells to that of untreated controls. All experiments were conducted in triplicate with at least two technical replicates per concentration. EC50 values were determined by nonlinear regression using GraphPad Prism 8 and CompuSyn software (Biosoft, U.K.).

[2] = system: T. cruzi Y strain amastigote forms; experiment: Anti-T. cruzi activity against intracellular amastigote forms in infected Vero or H9c2 cells; format: cell-based, Trypanosoma cruzi; conditions: Trypanosoma cruzi; Vero or H9c2 cells infected with amastigote forms; 48 h of incubation; fixed concentration 50 μmol·L^–1
Protocol: as §1
Vero or H9c2 cells (7.5 × 10^3 cells/well) were seeded on sterile glass coverslips placed in 24-well plates and incubated for 24 h at 37 °C in 5% CO2 to allow cell adhesion. Following this period, cells were infected with trypomastigote forms of T. cruzi Y strain at a ratio of 20 parasites per cell. After 24 h of parasite-host interaction, noninternalized parasites were removed by washing with fresh medium, and the infected monolayers were incubated for 48 h with the hybrid compounds at a fixed concentration of 50 μmol·L^–1, following toxicity parameters. Infected but untreated cells were included as negative controls in all experiments. At the end of the treatment period, coverslips were washed with medium, fixed with methanol, and stained with Giemsa solution. After drying, the coverslips were mounted onto microscope slides using Entellan (Merck) and analyzed under a light microscope at 100× magnification. At least 200 cells were counted per coverslip, and only intracellular parasite forms with characteristic morphology were considered for analysis. The infection index was determined by the percentage of infected cells relative to the total number of cells analyzed. The inhibition percentage was calculated based on the reduction in infection in treated samples compared to the untreated control. Dose–response curves were constructed using GraphPad Prism 8 and CompuSyn (Biosoft, U.K.). All experiments were performed in triplicate, with at least two technical replicates per condition.

[3] = Cell viability assay (resazurin), Vero cells; format: cell-based; conditions: African green monkey, Vero cells; resazurin method; 48 h incubation; read-out: Cytotoxicity CC50 Vero
Protocol: (§2) Vero and H9c2 cells (2 × 10^3 cells/well) were seeded in 96-well plates in Dulbecco’s modified Eagle’s medium (DMEM) supplemented with 5% fetal bovine serum (FBS) and incubated for 24 h at 37 °C in a humidified atmosphere with 5% CO2. After incubation, the medium was replaced with fresh DMEM + 5% FBS containing serial dilutions of each hybrid compound (1400 to 175 μmol·L^–1). Cells were exposed to the compounds for 48 h. Four wells with untreated cells served as a positive control. Additionally, eight wells without cells were maintained as negative controls: four containing DMEM + 5% FBS + resazurin (1 mmol·L^–1), and four containing only DMEM + 5% FBS. After the 48-h incubation, the treatment medium was removed and replaced with DMEM + 5% FBS containing 10% resazurin solution (1 mmol·L^–1). Plates were incubated for an additional 6 h, and then absorbance was measured at 570 and 600 nm using a microplate reader. Dose–response curves were constructed using GraphPad Prism 8 software, and CC50 values were determined by nonlinear regression.

[4] = system: Vero cells; experiment: Cell viability assay (resazurin), Vero cells; format: cell-based; conditions: 48 h; 1400 to 175 μmol·L^–1
Protocol: as §2

[5] = Cell viability assay (resazurin), H9c2 cells; format: cell-based; conditions: rat, resazurin method, 48 h incubation, read-out: Cytotoxicity CC50 H9c2
Protocol: as §2

[6] = system: Trypanosoma cruzi; conditions: cited from earlier work
[7] = system: T. cruzi epimastigotes; design: method as in Brancaglion and coauthors; conditions: ref Brancaglion and coauthors; read-out: in vitro IC50 against epimastigotes; cited from earlier work
[8] = system: T. cruzi intracellular amastigote forms; conditions: in vitro; cited from earlier work

| EC50 [1] [µM] | EC50 [2] [µM] | SMILES | CC50 at 48 h [3] [µM] | cytotoxicity toward Vero cells (in words) [4] | CC50 at 48 h [5] [µM] | also measured |
| --- | --- | --- | --- | --- | --- | --- |
| > 100 | > 50 | COc1ccc(CC(O)Cn2cncn2)cc1OC (racemic) [Compound 20, (±)-1-(3,4-Dimethoxyphenyl)-3-(1H-1,2,4-triazol-1-yl)propan-2-ol] | > 1400 | significantly higher cytotoxicity | > 1300 |  |
| > 100 | > 50 | COc1cc(CC(O)Cn2ccnc2)cc([N+](=O)[O-])c1O (racemic) [Compound 25, (±)-4-(2-Hydroxy-3-(1H-imidazol-1-yl)propyl)-2-methoxy-6-nitrophenol] | 860 | significantly higher cytotoxicity | > 1300 |  |
| > 100 | > 50 | COc1cc(CC(O)Cn2ccnn2)cc([N+](=O)[O-])c1O (racemic) [Compound 31, (±)-4-(2-Hydroxy-3-(1H-1,2,3-triazol-1-yl)propyl)-2-methoxy-6-nitrophenol] | > 1300 |  | > 1300 |  |
| > 100 | > 50 | COc1ccc(CC(O)Cn2ccnn2)cc1OC (racemic) [Compound 32, (±)-1-(3,4-Dimethoxyphenyl)-3-(1H-1,2,3-triazol-1-yl)propan-2-ol] | > 1300 |  | > 1300 |  |
| > 100 | > 50 | COc1cc(CC(O)Cn2ccnn2)cc([N+](=O)[O-])c1OC (racemic) [Compound 33, (±)-1-(3,4-Dimethoxy-5-nitrophenyl)-3-(1H-1,2,3-triazol-1-yl)propan-2-ol] | 1190 | significantly higher cytotoxicity | > 1300 |  |
| 38.1 | > 50 | COc1cc(CC(O)Cn2ccnn2)cc([N+](=O)[O-])c1OCc1ccccc1 (racemic) [Compound 34, (±)-1-(4-(Benzyloxy)-3-methoxy-5-nitrophenyl)-3-(1H-1,2,3-triazol-1-yl)propan-2-ol] | > 1300 |  | > 1300 | SI (selectivity index) ([1]; mammalian cell CC50 versus trypomastigote EC50): >34 |

The next lines start with the compound.

| SMILES | EC50 [1] [µM] | EC50 [2] [µM] | CC50 at 48 h [3] [µM] | cytotoxicity toward Vero cells (in words) [4] | CC50 at 48 h [5] [µM] | also measured |
| --- | --- | --- | --- | --- | --- | --- |
| O=C(Cn1ccnc1[N+](=O)[O-])NCc1ccccc1 [Bz, benznidazole] | 21 |  |  |  |  | parasitological cure rates ([6]; acute or early congenital infections): 80–90%; treatment discontinuation due to adverse effects ([6]; dermatological, gastrointestinal and neurological symptoms): 10–20 % of patients |
| CCCc1cc(OC)c2oc(=O)c(C(=O)c3ccc([N+](=O)[O-])cc3)cc2c1 [nitrobenzoyl derivative, 8-methoxy-3-(4-nitrobenzoyl)-6-propyl-2H-cromen-2-one] |  |  |  |  |  | IC50 [7]: 28 µM |
| CC[C@@H]([C@H](C)O)n1ncn(-c2ccc(N3CCN(c4ccc(OC[C@@H]5CO[C@@](Cn6cncn6)(c6ccc(F)cc6F)C5)cc4)CC3)cc2)c1=O [posaconazole] |  |  |  |  |  | inhibitory concentration against intracellular amastigotes (in words) [8]: subnanomolar concentrations |
| C[C@@H](c1nc(-c2ccc(C#N)cc2)cs1)[C@](O)(Cn1cncn1)c1ccc(F)cc1F [ravuconazole] |  |  |  |  |  | inhibitory concentration against intracellular amastigotes (in words) [8]: subnanomolar concentrations |

— publication PMC12444550, “Design, Synthesis, and Trypanosomicidal Evaluation of Eugenol-Based Azole Hybrids: Discovery of an In Vitro Active and Selective Compound” (ACS Omega, 2025)
